Results reported in patent publication EP0571390B1, “THE DELAY, PREVENTION AND/OR REVERSAL OF CELL SENESCENCE” (priority 1990, dated 1992).

How the values were obtained:
[1] = tested on: RR cells (human foreskin fibroblasts); experiment: Growth and lifespan of RR cells passaged in medium with carnosine; type: cell-based; conditions: for fibroblast morphology: after many population doublings; for time still growing: continuous
Description: (§1) Cells were grown in Dulbecco's modification of Eagles' Minimal Essential Medium, with 10% fetal calf serum. When cells became confluent and ceased division, they were harvested with trypsin - versene, and dispersed to form a suspension of single cells which was counted with a Coulter Counter. Depending on the cell yield the culture was split in a ratio of 1:2, 1:4, or 1:8. These split ratios correspond approximately to one, two or three cell population doublings when the new cultures become confluent. The exact number of population doublings is calculated from the cell yield at each sub-culture.
Initially, human foreskin fibroblasts were obtained from Dr Roger Reddel (Children's Medical Research Foundation) at passage 5, flasks were set up with differing concentrations of carnosine (10mM, 20mM, 30mM and 50mM) together with control cultures. Each of the cultures were passaged in the same medium.

[2] = tested on: MRC-5 cells; experiment: Longevity experiment, MRC-5 cells grown continuously in medium supplemented with carnosine; type: cell-based, human; conditions: for longevity: continuous, controls ceased growth at 57 and 61 PDs
Description: as §1
MRC-5 is a very well characterised fibroblast strain derived from foetal lung tissue. Early passage cultures were obtained from the National Institute for Biological Standards and Control, South Mimms, Herts, U.K. Longevity experiments were set up using normal medium and medium supplemented with 20 and 30mM carnosine (medium was the same as for RR cells above). […] The control cells became senescent at the expected time, namely after about 50 - 55 PDs, and they ceased growth at 57 and 61 PDs. […] It should be noted that the PD level is a logarithmic measure of growth, so an increase of 10 PDs represents an increase in cell mass of 2^10, or x 1,000.

[3] = tested on: MRC-5 cells; experiment: Transfer of senescent MRC-5 cells from normal medium to carnosine medium at PD level 55; type: cell-based, human
Description: as §1
Remarkably, these cells are continuing to grow after 400 days (Figure 8), whereas cells grown continuously in carnosine died out after 139 days. Thus it appears that transfer of senescent cells to carnosine can reverse the senescent phenotype and allow extended growth of cells with a near normal morphology (Figures 10, 11 and 12).

[4] = transferred at PD level 55 to 20mM carnosine
[5] = transferred at PD level 55 to 30mM carnosine

NCCC(=O)N[C@@H](Cc1c[nH]cn1)C(=O)O [carnosine, β-alanyl-L-histidine]
growth rate ([1]; 10mM carnosine added to standard medium, versus control cultures): grew as rapidly as control cultures | growth rate ([1]; 20mM carnosine added to standard medium, versus control cultures): grew as rapidly as control cultures | growth rate ([1]; 30mM carnosine): some reduction in growth rate | fibroblast morphology ([1]; 30mM carnosine): retained their characteristic fibroblast morphology | time still growing ([1]; 30mM carnosine): > 500 days | growth rate ([1]; 50mM carnosine): a great reduction | fibroblast morphology ([1]; 50mM carnosine): retained their characteristic fibroblast morphology | time still growing ([1]; 50mM carnosine): > 500 days | PD level of cells growing continuously ([2]; 20mM carnosine (Figure 7)): 67 PD | growth rate in the initial stage ([2]; 20mM carnosine versus normal medium): little difference in growth rate | longevity ([2]; 20mM carnosine): very significantly increased longevity | growth rate in the initial stage ([2]; 30mM carnosine versus normal medium): little difference in growth rate | longevity ([2]; 30mM carnosine): very significantly increased longevity | number of cells per flask ([2]; as the end of the culture lifespan approaches): significantly increases the number of cells per flask | morphological features of senescence ([2]; carnosine medium, Figure 7 compared with Figure 6): delayed the normal morphological features of senescence | time until cells died out ([2]; cells grown continuously in carnosine): 139 days | PDs reached after transfer ([3]; 20mM carnosine, 146 days after transfer (Figure 11)): 64 PDs | PDs reached after transfer ([3]; 30mM carnosine, 146 days after transfer (Figure 12)): 63 PDs | effect in increasing cell yield ([3]; cells transferred from normal medium to 30mM carnosine medium (Figure 9)): particularly striking | phenotype after transfer [3, 4]: continued to grow slowly, but with a rejuvenated phenotype | time continuing to grow [3, 4]: > 400 days | phenotype after transfer [3, 5]: continued to grow slowly, but with a rejuvenated phenotype | time continuing to grow [3, 5]: > 400 days
